± gives the expanded uncertainty stated by the source.
Experiment: xn = mol fraction of the nth substance listed
Settings: 100.5 kPa, Liquid; for viscosity: Capillary tube (Ostwald / Ubbelohde) method

COC(=O)c1ccccc1 [methyl benzoate] + CCO
Settings	mass density, 288.15 K [kg/m3]	mass density, 298.15 K [kg/m3]	mass density, 308.15 K [kg/m3]	mass density, 318.15 K [kg/m3]	viscosity, 288.15 K [mPa·s]	viscosity, 298.15 K [mPa·s]	viscosity, 308.15 K [mPa·s]	viscosity, 318.15 K [mPa·s]
x1 = 0.05	825.66 ± 0.4	816.86 ± 0.42	807.97 ± 0.43	798.9 ± 0.44	1.324 ± 0.014	1.092 ± 0.013	0.911 ± 0.013	0.766 ± 0.013
x1 = 0.1	853.88 ± 0.36	844.92 ± 0.38	835.86 ± 0.39	826.58 ± 0.41	1.323 ± 0.014	1.094 ± 0.014	0.915 ± 0.013	0.77 ± 0.013
x1 = 0.15	879.1 ± 0.33	869.96 ± 0.35	860.69 ± 0.36	851.28 ± 0.37	1.338 ± 0.014	1.107 ± 0.014	0.924 ± 0.013	0.782 ± 0.013
x1 = 0.2	901.63 ± 0.31	892.4 ± 0.32	883.02 ± 0.34	873.48 ± 0.35	1.359 ± 0.014	1.122 ± 0.014	0.94 ± 0.013	0.797 ± 0.013
x1 = 0.25	922.04 ± 0.29	912.73 ± 0.31	903.27 ± 0.32	893.66 ± 0.33	1.383 ± 0.014	1.144 ± 0.014	0.958 ± 0.013	0.814 ± 0.013
x1 = 0.3	940.62 ± 0.28	931.27 ± 0.29	921.76 ± 0.3	912.06 ± 0.32	1.417 ± 0.014	1.171 ± 0.014	0.981 ± 0.013	0.834 ± 0.013
x1 = 0.35	957.58 ± 0.28	948.19 ± 0.29	938.63 ± 0.3	928.88 ± 0.31	1.455 ± 0.015	1.199 ± 0.014	1.006 ± 0.013	0.855 ± 0.013
x1 = 0.4	973.15 ± 0.28	963.7 ± 0.28	954.11 ± 0.29	944.3 ± 0.3	1.496 ± 0.015	1.232 ± 0.014	1.031 ± 0.013	0.877 ± 0.013
x1 = 0.45	987.48 ± 0.28	978.01 ± 0.29	968.36 ± 0.29	958.52 ± 0.3	1.541 ± 0.015	1.266 ± 0.014	1.061 ± 0.014	0.902 ± 0.013
x1 = 0.5	1000.69 ± 0.29	991.23 ± 0.29	981.53 ± 0.3	971.68 ± 0.31	1.589 ± 0.015	1.303 ± 0.014	1.091 ± 0.014	0.928 ± 0.013
x1 = 0.55	1012.94 ± 0.31	1003.42 ± 0.3	993.75 ± 0.3	983.88 ± 0.3	1.64 ± 0.015	1.341 ± 0.014	1.123 ± 0.014	0.954 ± 0.013
x1 = 0.6	1024.33 ± 0.33	1014.81 ± 0.32	1005.11 ± 0.31	995.26 ± 0.31	1.692 ± 0.016	1.384 ± 0.015	1.158 ± 0.014	0.982 ± 0.013
x1 = 0.65	1034.94 ± 0.35	1025.44 ± 0.34	1015.73 ± 0.33	1005.87 ± 0.32	1.746 ± 0.016	1.429 ± 0.015	1.193 ± 0.014	1.014 ± 0.014
x1 = 0.7	1044.83 ± 0.37	1035.36 ± 0.36	1025.64 ± 0.35	1015.8 ± 0.34	1.807 ± 0.016	1.475 ± 0.015	1.231 ± 0.014	1.047 ± 0.014
x1 = 0.75	1054.13 ± 0.39	1044.67 ± 0.38	1034.95 ± 0.37	1025.13 ± 0.36	1.87 ± 0.017	1.526 ± 0.015	1.275 ± 0.014	1.083 ± 0.014
x1 = 0.8	1062.88 ± 0.42	1053.41 ± 0.41	1043.73 ± 0.4	1033.93 ± 0.39	1.942 ± 0.017	1.581 ± 0.016	1.318 ± 0.015	1.122 ± 0.014
x1 = 0.85	1071.11 ± 0.44	1061.7 ± 0.43	1052.04 ± 0.42	1042.24 ± 0.41	2.03 ± 0.018	1.645 ± 0.016	1.369 ± 0.015	1.166 ± 0.014
x1 = 0.9	1078.93 ± 0.47	1069.53 ± 0.46	1059.87 ± 0.45	1050.1 ± 0.44	2.118 ± 0.018	1.712 ± 0.016	1.421 ± 0.015	1.208 ± 0.014
x1 = 0.95	1086.31 ± 0.49	1076.94 ± 0.48	1067.3 ± 0.47	1057.55 ± 0.46	2.207 ± 0.019	1.784 ± 0.017	1.48 ± 0.015	1.255 ± 0.015
x1 = 1	1093.23 ± 0.52	1083.92 ± 0.51	1074.34 ± 0.5	1064.62 ± 0.49	2.297 ± 0.019	1.851 ± 0.017	1.531 ± 0.016	1.297 ± 0.015

From the NIST ThermoML archive (doi:10.1021/je050402s)
